Assay in all cases: NCI tumour cell line growth inhibition, 48 h
Test [1] has as its system A549 NSCLC.
Test [2] has as its system SNB-19 CNS.
Test [3] has as its system RXF 393 renal.
Test [4] relates to PC-3 prostate.
Test [5] concerns MDA-MB-435.
Test [6] concerns ACHN renal.
Test [7] has as its system SK-MEL-5 melanoma.
For test [8], the system named is MALME-3M melanoma.
For test [9], the system named is HS 578T breast.
Test [10] concerns SF-268 CNS.

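Five compound concentrations were applied to cells in 96-well plates for 48 hours; endpoints were derived by simple linear interpolation of the resulting dose-response curve. The concentration for 50% growth inhibition is given as GI50. At the TGI there is no net growth.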

Take `COc1cc(/C(=C2/O[C@@H]([C@H]3COC(C)(C)O3)[C@H]3OC(C)(C)O[C@@H]23)c2ccc3ccccc3c2)cc(OC)c1OC`: the GI50 in [1] is 3.09 µM; in test [2], 2.49 µM; in test [3], 2.54 µM; in test [4], 5.71 µM; in [5], 3.61 µM; in [6], 4.4 µM. Besides, the GI50 in test [7] was 4.07 µM; in test [8] it was 2.07 µM; in test [9] it was 4.44 µM; in test [10], 3.13 µM. The TGI in [1] was 9.55 µM; in test [2], 6.08 µM; in [3] it was 5.99 µM; in [4], greater than 100 µM; in test [5] it was 17.5 µM; in test [6], greater than 100 µM. Moreover, the TGI in test [7] turned out to be 15.4 µM; in test [8], 5.59 µM; in [9], 53.4 µM; in test [10] it was 15.9 µM.

Consider `CC1(C)CC[C@]2(C(=O)O)CC[C@]3(C)C(=CC[C@@H]4[C@@]5(C)C[C@H](O)[C@H](O)[C@@](C)(C(=O)O)[C@@H]5CC[C@]43C)[C@@H]2C1`, for which the TGI in [1], in test [2], in test [3], in test [4], in test [5] and in test [6] was greater than 100 µM each time. Moreover, the TGI in test [7], in [8], in test [9] and in test [10] was greater than 100 µM throughout.

As to `O=[N+]([O-])c1ccc(C2=Nn3c(nnc3-c3ccc(Cl)cc3)SC2)o1`, the TGI in test [1] was 48.6 µM; in [2], 29.9 µM; in test [3], 21.6 µM; in test [4], 18.4 µM; in test [5], 4.39 µM; in test [6], 27.3 µM. In addition, the TGI was 25.3 µM in [7], 12.4 µM in [8], 18.4 µM in [9] and 30.2 µM in test [10].

For `CN(C)CCCCC(C(=O)CBr)(c1ccccc1)c1ccccc1`, the GI50 is 4.93 µM in test [1]; 7.43 µM in test [2]; 1.74 µM in test [3]; 2.71 µM in [4]; 2.45 µM in test [5]; 1.48 µM in test [6]. Moreover, the GI50 is 2.53 µM in [7], 1.44 µM in test [8], 3.11 µM in [9] and 3.89 µM in test [10]. Further, the TGI in test [1] is 18.8 µM; in test [2] it was 23.9 µM; in test [3] it was 4.06 µM; in test [4] it was 9.58 µM; in test [5], 10.5 µM; in [6], 3.03 µM. Besides, the TGI was found to be 8.68 µM in [7], 3.62 µM in test [8], 22.7 µM in [9] and 15.8 µM in [10].

In the case of `CC1=NN(c2ccc(S(=O)(=O)O)cc2)C(=O)/C1=C/c1ccc(Cl)cc1`, the TGI in [1], in test [2], in test [3], in test [4], in [5] and in test [6] was greater than 100 µM in each case. Further, the TGI in test [7], in test [8], in test [9] and in test [10] was greater than 100 µM in each case.

As for `N=N/C(=C\c1c(O)[nH]c2ccccc12)c1ccccc1`, the TGI in test [1] is greater than 100 µM; in test [2] it was greater than 92.9 µM; in test [3], 62.6 µM; in test [4], greater than 70.7 µM; in [5] it was 20.3 µM; in [6] it was greater than 100 µM. In addition, the TGI in test [7] is greater than 100 µM; in [8], greater than 78 µM; in [9] it was 44.4 µM; in test [10], greater than 100 µM.

For the molecule `Cc1ccc2c(c1)c(Sc1ccc(C(=O)NO)cc1)c1n2CN(C)CC1`, the GI50 is 2.27 µM in [1]; 2.13 µM in test [2]; 1.74 µM in test [3]; 1.5 µM in test [4]; 1.58 µM in test [5]; 2.68 µM in test [6]. Besides, the GI50 in [7] was 2.23 µM; in test [8] it was 1.35 µM; in test [9], 2.25 µM; in [10], 1.6 µM. The TGI in test [1] was 5.81 µM; in test [2], 7.27 µM; in [3], 5.86 µM; in [4] it was 3.77 µM; in test [5], 3.37 µM; in [6] it was 8.63 µM. The TGI in test [7] came to 6.27 µM; in test [8], 4.2 µM; in test [9], 13 µM; in test [10], 3.7 µM.

`COc1ccc2c(c1)CC[C@@H]1[C@@H]2CC[C@]2(C)c3c(cc(C(=O)O)c4sccc34)C[C@@H]12`: the GI50 is 11.2 µM in test [1]; 17.8 µM in test [2]; 16.5 µM in [3]; 10.5 µM in test [4]; 18.4 µM in test [5]; 18.9 µM in test [6]. In addition, the GI50 in test [7] was 14.7 µM; in test [8] it was 22.6 µM; in test [9], 28.7 µM; in test [10], 17.6 µM. Further, the TGI in test [1] is 35.9 µM; in test [2], 48.4 µM; in test [3], 36 µM; in test [4], 25.1 µM; in test [5], 39.6 µM; in test [6] it was 78.4 µM. Moreover, the TGI in test [7] came to 28.4 µM; in test [8], 42.7 µM; in test [9] it was 96.1 µM; in [10], 48.3 µM.

Regarding `CCCCCCCCCCCCSC1=C(Cl)C(=O)C(OC)=C(OC)C1=O`, the GI50 in test [1] was 4.39 µM; in test [2] it was 3.64 µM; in test [3], 4.51 µM; in test [4], 1.18 µM; in test [5], 0.653 µM; in [6], 1.52 µM. In addition, the GI50 was 0.49 µM in [7], 0.539 µM in [8], 2.76 µM in test [9] and 3.08 µM in test [10]. The TGI was determined as 21.1 µM in test [1]; 15 µM in test [2]; 23.1 µM in [3]; 9.09 µM in [4]; 10.2 µM in test [5]; 18.2 µM in [6]. Further, the TGI in test [7] turned out to be 3.66 µM; in test [8], 14.2 µM; in test [9], 7.96 µM; in [10], 16.1 µM.

Turning to `COCCNc1ccc2c3c(cccc13)C(=O)N(CCN(C)C)C2=O`, the GI50 in test [1] is 6.35 µM; in test [2], 4.11 µM; in [3], 5.07 µM; in test [4], 9.76 µM; in [5] it was 8.15 µM; in test [6] it was 4.64 µM. The GI50 in [7] was 4.76 µM; in test [8], 6.13 µM; in test [9] it was 9.38 µM; in test [10], 8.95 µM. Further, the TGI in test [1] was greater than 25 µM; in test [2] it was greater than 25 µM; in test [3] it was 16.9 µM; in [4], greater than 25 µM; in test [5], greater than 25 µM; in test [6] it was greater than 25 µM. Moreover, the TGI in test [7] was 13.1 µM; in [8], 21.1 µM; in test [9] it was greater than 25 µM; in [10] it was greater than 25 µM.

Take `COc1ccc(Nc2cc(C)nc(NCc3ccccc3)n2)cc1`: the GI50 in [1] is 6.53 µM; in [2] it was 5.02 µM; in [3], 3.07 µM; in [4], 3.25 µM; in [5] it was 3.16 µM; in [6], 4.44 µM. Also, the GI50 is 1.36 µM in test [7], 2.36 µM in test [8], 11 µM in test [9] and 13.1 µM in test [10]. Further, the TGI came to 24.7 µM in [1]; 28.8 µM in test [2]; 14.4 µM in [3]; 19 µM in test [4]; 13 µM in test [5]; 17.7 µM in test [6]. Further, the TGI in [7] turned out to be 2.84 µM; in test [8] it was 9.2 µM; in test [9], 39.2 µM; in test [10] it was 36.3 µM.

Turning to `Cc1nc(-c2nc(-c3ccc(OC(F)(F)F)cc3)no2)nn1Cc1cccc(N2CCC(S(C)(=O)=O)CC2)c1`, the GI50 in [1] is 4.62 µM; in test [2], 8.75 µM; in [3], 5.88 µM; in test [4] it was 3.59 µM; in [5], 2.9 µM; in test [6], greater than 26.7 µM. In addition, the GI50 in test [7] was less than 0.01 µM; in [8], greater than 34.3 µM; in [9], greater than 36.9 µM; in test [10], greater than 40.9 µM. Moreover, the TGI in [1] was greater than 100 µM; in test [2], 95.4 µM; in [3] it was 44.4 µM; in test [4] it was 55.2 µM; in test [5], greater than 100 µM; in [6] it was greater than 65 µM. Also, the TGI in test [7] was 1.06 µM; in [8], greater than 76.8 µM; in [9], greater than 82.1 µM; in [10], greater than 100 µM.

`Cc1cc(O)cc(C)c1/C=C/c1cncc(C(N)=O)c1`: the GI50 was 3.48 µM in [1]; 4.34 µM in [2]; 2.36 µM in [3]; 5.09 µM in [4]; 0.538 µM in test [5]; 8.43 µM in [6]. Also, the GI50 in [7] was 1.11 µM; in test [8], 1.64 µM; in test [9], 1.72 µM; in test [10], 3.99 µM. The TGI in test [1] is greater than 25 µM; in [2], greater than 25 µM; in test [3], 13 µM; in [4], greater than 25 µM; in test [5], 1.77 µM; in test [6], greater than 25 µM. Besides, the TGI in test [7] is greater than 25 µM; in [8] it was 24.4 µM; in [9], 11.2 µM; in test [10], greater than 25 µM.

On to `C=C1C(=O)O[C@H]2[C@H]1CC/C(C=Nc1c(N)cc(C(F)(F)F)cc1C(F)(F)F)=C\CC[C@@]1(C)O[C@@H]21`, for which the GI50 in test [1] is 1.95 µM; in test [2], 1.93 µM; in test [3] it was 1.24 µM; in [4], 1.54 µM; in [5], 2.03 µM; in test [6], 1.26 µM. The GI50 in test [7] is 1.35 µM; in [8] it was 2 µM; in test [9], 1.67 µM; in test [10], 1.55 µM. The TGI in test [1] turned out to be 3.74 µM; in test [2], 4.98 µM; in test [3], 2.74 µM; in [4] it was 4.4 µM; in test [5], 6.05 µM; in test [6] it was 2.68 µM. Besides, the TGI in [7] was 2.67 µM; in test [8], 3.95 µM; in test [9] it was 7.45 µM; in test [10], 3.82 µM.

Consider `O=[N+]([O-])c1ccc(C2CC(c3ccccc3)=Nc3ccccc3S2)cc1` (stereo not given), for which the GI50 in test [1] was greater than 100 µM; in [2] it was greater than 100 µM; in [3], greater than 100 µM; in test [4], 8.2 µM; in test [5], greater than 100 µM; in test [6], 88.7 µM. In addition, the GI50 is greater than 100 µM in test [7], greater than 100 µM in test [8], 19.1 µM in test [9] and greater than 100 µM in test [10]. The TGI in test [1], in test [2], in test [3], in test [4], in test [5] and in test [6] was greater than 100 µM in each case. In addition, the TGI in [7], in [8], in test [9] and in test [10] was greater than 100 µM each time.

`CCN1C(=O)N(CC)C2C1NN=c1s/c(=C\c3ccco3)c(=O)n12` (stereo not given): the GI50 is 0.801 µM in [1]; 0.741 µM in test [2]; 0.558 µM in test [3]; 0.455 µM in [4]; 0.138 µM in test [5]; 0.818 µM in test [6]. Further, the GI50 in test [7] was 0.415 µM; in test [8], 2.15 µM; in test [9], 0.459 µM; in [10], 0.791 µM. Besides, the TGI in [1] is greater than 100 µM; in [2], greater than 100 µM; in [3], greater than 23.4 µM; in test [4], greater than 100 µM; in test [5] it was 0.58 µM; in test [6], greater than 100 µM. In addition, the TGI is 55.3 µM in test [7], greater than 100 µM in test [8], greater than 100 µM in [9] and greater than 100 µM in test [10].

The values are drawn from PubChem BioAssay (NCI).
